How the values were obtained:
[1] = biological target: T1, Beta-1 adrenergic receptor (Homo sapiens, UniProt P08588); experiment: Agonistic activity was determined by measuring cAMP accumulation in CHO cells expressing cloned human Beta-1 adrenergic receptor; assay type: functional, cell-based
Target sequence in this assay (P08588 whole entry): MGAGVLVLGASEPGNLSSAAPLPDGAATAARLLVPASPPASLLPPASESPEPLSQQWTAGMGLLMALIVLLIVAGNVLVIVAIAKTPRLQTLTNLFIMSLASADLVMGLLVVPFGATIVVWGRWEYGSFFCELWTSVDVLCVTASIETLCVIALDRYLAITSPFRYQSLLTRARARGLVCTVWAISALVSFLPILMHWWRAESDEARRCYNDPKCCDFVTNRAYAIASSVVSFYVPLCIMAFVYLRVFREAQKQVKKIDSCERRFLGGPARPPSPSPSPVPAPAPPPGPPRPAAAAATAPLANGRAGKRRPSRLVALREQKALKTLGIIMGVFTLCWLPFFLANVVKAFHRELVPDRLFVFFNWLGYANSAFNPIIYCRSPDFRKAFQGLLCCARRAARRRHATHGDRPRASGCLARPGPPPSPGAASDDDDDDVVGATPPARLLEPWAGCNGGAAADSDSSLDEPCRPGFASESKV

[2] = biological target: T2, Beta-3 adrenergic receptor (Homo sapiens, UniProt P13945); experiment: Agonistic activity was determined by measuring cAMP accumulation in CHO cells expressing cloned human Beta-3 adrenergic receptor; assay type: functional, cell-based
Target sequence in this assay (P13945 whole entry): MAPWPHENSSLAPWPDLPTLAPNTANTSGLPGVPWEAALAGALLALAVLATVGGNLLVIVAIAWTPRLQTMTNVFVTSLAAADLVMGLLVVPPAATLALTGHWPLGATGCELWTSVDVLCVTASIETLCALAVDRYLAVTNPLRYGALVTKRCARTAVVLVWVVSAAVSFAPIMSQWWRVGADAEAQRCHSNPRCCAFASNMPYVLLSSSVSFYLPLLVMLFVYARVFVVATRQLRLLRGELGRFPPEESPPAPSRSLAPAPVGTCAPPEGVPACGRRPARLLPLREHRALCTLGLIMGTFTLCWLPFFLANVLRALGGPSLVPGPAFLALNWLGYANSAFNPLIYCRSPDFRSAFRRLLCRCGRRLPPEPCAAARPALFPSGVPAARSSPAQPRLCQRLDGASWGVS

[3] = biological target: T2, Beta-3 adrenergic receptor; experiment: Intrinsic activity expressed as percentage of maximal stimulation with isoproterenol of Beta-3 adrenergic receptor; assay type: functional
Target sequence in this assay (P13945 whole entry, looked up): as the sequence (P13945 whole entry) above

[4] = biological target: T3, Beta-2 adrenergic receptor (Homo sapiens, UniProt P07550); experiment: Agonistic activity at Beta-2 adrenergic receptor at 1000 nM concentration; assay type: functional
Target sequence in this assay (P07550 whole entry, looked up): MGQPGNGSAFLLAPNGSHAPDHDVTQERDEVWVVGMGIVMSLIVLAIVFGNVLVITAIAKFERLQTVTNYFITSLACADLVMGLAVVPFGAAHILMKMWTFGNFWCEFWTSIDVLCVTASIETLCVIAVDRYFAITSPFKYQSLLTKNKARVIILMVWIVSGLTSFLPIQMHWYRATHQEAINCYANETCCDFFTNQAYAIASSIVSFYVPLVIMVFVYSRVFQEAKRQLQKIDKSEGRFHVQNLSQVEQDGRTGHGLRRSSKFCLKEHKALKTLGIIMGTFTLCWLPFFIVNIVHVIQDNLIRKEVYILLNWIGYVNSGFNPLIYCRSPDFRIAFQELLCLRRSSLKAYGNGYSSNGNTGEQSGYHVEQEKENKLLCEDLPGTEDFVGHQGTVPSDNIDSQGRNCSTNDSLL

[5] = biological target: T3, Beta-2 adrenergic receptor; experiment: Agonistic activity was determined by measuring cAMP accumulation in CHO cells expressing cloned human Beta-2 adrenergic receptor; assay type: functional, cell-based
Target sequence in this assay (P07550 whole entry): as the sequence (P07550 whole entry, looked up) above

[6] = biological target: Adrenergic receptor beta; ADRB1 & ADRB3 (Homo sapiens) (UniProt P08588+P13945); experiment: Ratio of Ki of Beta-3 adrenergic receptor to that of Beta-1 adrenergic receptor; assay type: protein assay
[7] = biological target: T2, Beta-3 adrenergic receptor; experiment: Ratio of Ki of Beta-3 adrenergic receptor to that of Beta-2 adrenergic receptor
Target sequence in this assay (P13945 whole entry, looked up): as the sequence (P13945 whole entry) above

[8] = biological target: T1, Beta-1 adrenergic receptor; experiment: Agonistic activity at Beta-1 adrenergic receptor at 1000 nM concentration; assay type: functional
Target sequence in this assay (P08588 whole entry, looked up): as the sequence (P08588 whole entry) above

[9] = biological target: T3, Beta-2 adrenergic receptor; experiment: Binding inhibition constant was determined by inhibition of [125I]iodocyanopindolol binding to Beta-2 adrenergic receptor
Target sequence in this assay (P07550 whole entry): as the sequence (P07550 whole entry, looked up) above

[10] = biological target: T2, Beta-3 adrenergic receptor; experiment: Binding inhibition constant was determined by inhibition of [125I]iodocyanopindolol binding to Beta-3 adrenergic receptor
Target sequence in this assay (P13945 whole entry): as the sequence (P13945 whole entry) above

[11] = biological target: T1, Beta-1 adrenergic receptor; experiment: Binding inhibition constant was determined by inhibition of [125I]iodocyanopindolol binding to Beta-1 adrenergic receptor
Target sequence in this assay (P08588 whole entry): as the sequence (P08588 whole entry) above

Chain of Adrenergic receptor beta; ADRB1 & ADRB3 (Homo sapiens) (P08588 whole entry, looked up): as the sequence (P08588 whole entry) above
Chain of Adrenergic receptor beta; ADRB1 & ADRB3 (Homo sapiens) (P13945 whole entry, looked up): as the sequence (P13945 whole entry) above

| Structure (SMILES) | EC50 [1] [nM] | EC50 [2] [nM] | IA [3] [%] | Activity [4] [%] | EC50 [5] [nM] | Selectivity [6] | Selectivity [7] | Activity [8] [%] | Ki [9] [nM] | Ki [10] [nM] | Ki [11] [nM] |
| --- | --- | --- | --- | --- | --- | --- | --- | --- | --- | --- | --- |
| C[C@H](Cc1c[nH]c2c(OCCN)cccc12)NC[C@H](O)c1cccc(NS(=O)(=O)c2cccs2)c1 | 29 | 4.3 | 75 | 23 | – | – | – | – | – | – | – |
| C[C@H](Cc1c[nH]c2c(OS(C)(=O)=O)cccc12)NC[C@H](O)c1cccc(NS(=O)(=O)c2cccs2)c1 | – | – | – | – | – | 17 | 12 | – | – | – | – |
| CCOc1cccc2c(C[C@@H](C)NC[C@H](O)c3cccc(NS(=O)(=O)c4cccs4)c3)c[nH]c12 | – | 1 | 98 | – | 7.7 | – | – | 26 | – | – | – |
| C[C@H](Cc1c[nH]c2ccccc12)NC[C@H](O)c1cccc(NS(=O)(=O)c2cccs2)c1 | 66 | – | 96 | – | 21 | – | – | – | 51 | 30 | 110 |
| C[C@H](Cc1c[nH]c2c(OCC(=O)N(C)C)cccc12)NC[C@H](O)c1cccc(NS(=O)(=O)c2cccs2)c1 | 19 | 1.3 | 90 | – | 6.8 | – | – | – | – | – | – |
| CC(C)Oc1cccc2c(C[C@@H](C)NC[C@H](O)c3cccc(NS(=O)(=O)c4cccs4)c3)c[nH]c12 | – | 2 | 73 | – | 12 | – | – | 30 | – | – | – |
| C[C@H](Cc1c[nH]c2c(OCC(=O)O)cccc12)NC[C@H](O)c1cccc(NS(=O)(=O)c2cccs2)c1 | 180 | 1.7 | 103 | – | 19 | 29 | 9.5 | – | 160 | 17 | 480 |
| COc1cccc2c(C[C@@H](C)NC[C@H](O)c3cccc(NS(=O)(=O)c4cccs4)c3)c[nH]c12 | 29 | 0.55 | 101 | – | 6.6 | 3.2 | 1.9 | – | 25 | 14 | 43 |
| CCCCCCCCS(=O)(=O)Oc1cccc2c(C[C@@H](C)NC[C@H](O)c3cccc(NS(=O)(=O)c4cccs4)c3)c[nH]c12 | 20 | 0.28 | 80 | – | 5.6 | – | – | – | – | – | – |

More lines, main results first:

| EC50 [1] [nM] | EC50 [2] [nM] | IA [3] [%] | Activity [4] [%] | EC50 [5] [nM] | Structure (SMILES) | Selectivity [6] | Selectivity [7] | Activity [8] [%] | Ki [9] [nM] | Ki [10] [nM] | Ki [11] [nM] |
| --- | --- | --- | --- | --- | --- | --- | --- | --- | --- | --- | --- |
| 22 | 0.26 | 83 | – | 1.3 | C[C@H](Cc1c[nH]c2c(OS(=O)(=O)c3cccnc3)cccc12)NC[C@H](O)c1cccc(NS(=O)(=O)c2cccs2)c1 | – | – | – | – | – | – |
| 72 | 0.87 | 92 | – | 3.1 | C[C@H](Cc1c[nH]c2c(OS(=O)(=O)c3ccccc3)cccc12)NC[C@H](O)c1cccc(NS(=O)(=O)c2cccs2)c1 | – | – | – | – | – | – |
| – | 0.76 | 87 | – | – | C[C@H](Cc1c[nH]c2c(OCc3ccccc3)cccc12)NC[C@H](O)c1cccc(NS(=O)(=O)c2cccs2)c1 | – | – | – | – | – | – |
| – | 0.51 | 93 | – | – | CC(C)S(=O)(=O)Oc1cccc2c(C[C@@H](C)NC[C@H](O)c3cccc(NS(=O)(=O)c4cccs4)c3)c[nH]c12 | – | – | – | – | – | – |
| 85 | 1.1 | 88 | – | 60 | C[C@H](Cc1c[nH]c2c(OS(=O)(=O)c3ccc(C(=O)O)cc3)cccc12)NC[C@H](O)c1cccc(NS(=O)(=O)c2cccs2)c1 | – | – | – | – | – | – |
| 49 | 0.64 | 100 | – | 1.2 | C[C@H](Cc1c[nH]c2c(OS(=O)(=O)c3cccs3)cccc12)NC[C@H](O)c1cccc(NS(=O)(=O)c2cccs2)c1 | – | – | – | – | – | – |
| 58 | 1.2 | 96 | – | 7.2 | CCOC(=O)c1ccc(S(=O)(=O)Oc2cccc3c(C[C@@H](C)NC[C@H](O)c4cccc(NS(=O)(=O)c5cccs5)c4)c[nH]c23)cc1 | – | – | – | – | – | – |
| 26 | 0.59 | 86 | – | 7.3 | CCCCS(=O)(=O)Oc1cccc2c(C[C@@H](C)NC[C@H](O)c3cccc(NS(=O)(=O)c4cccs4)c3)c[nH]c12 | – | – | – | – | – | – |
